Assay results reported in the NIST ThermoML archive (doi:10.1016/j.fluid.2014.01.019).

Assay: xn = mol fraction of the nth substance listed
Details: 101 kPa, Liquid; for mass density: Vibrating tube method; for speed of sound: Frequency=2 MHz, Linear variable-path acoustic interferometer

Cc1ccccc1[N+](=O)[O-] [2-nitrotoluene] + OCc1ccccc1
Details | mass density, 298.15 K [kg/m3] | mass density, 303.15 K [kg/m3] | mass density, 308.15 K [kg/m3] | mass density, 313.15 K [kg/m3] | speed of sound, 303.15 K [m/s] | speed of sound, 313.15 K [m/s]
x2 = 0.0534 | 1153.93 | 1148.05 | 1144.09 | 1139.21 | 1444 | 1406
x2 = 0.1227 | 1146.45 | 1140.66 | 1136.63 | 1131.74 | 1449 | 1411
x2 = 0.1912 | 1138.96 | 1133.26 | 1129.16 | 1124.32 | 1454 | 1418
x2 = 0.2352 | 1134.11 | 1128.45 | 1124.35 | 1119.53 | 1458 | 1421
x2 = 0.2997 | 1126.89 | 1121.35 | 1117.19 | 1112.42 | 1462 | 1427
x2 = 0.3713 | 1118.76 | 1113.36 | 1109.17 | 1104.47 | 1467 | 1432
x2 = 0.4567 | 1108.91 | 1103.69 | 1099.48 | 1094.85 | 1474 | 1440
x2 = 0.5416 | 1098.93 | 1093.89 | 1089.68 | 1085.15 | 1480 | 1447
x2 = 0.6038 | 1091.49 | 1086.61 | 1082.42 | 1077.95 | 1485 | 1452
x2 = 0.6536 | 1085.47 | 1080.69 | 1076.51 | 1072.12 | 1489 | 1457
x2 = 0.7025 | 1079.47 | 1074.82 | 1070.68 | 1066.34 | 1493 | 1461
x2 = 0.743 | 1074.47 | 1069.91 | 1065.79 | 1061.49 | 1495 | 1464
x2 = 0.8128 | 1065.71 | 1061.34 | 1057.26 | 1053.06 | 1501 | 1471
x2 = 0.8551 | 1060.33 | 1056.07 | 1052.04 | 1047.91 | 1505 | 1474
x2 = 0.9351 | 1050 | 1045.96 | 1042.02 | 1038.01 | 1510 | 1481
